The values that follow are results of earlier work, collected in patent publication US20240058412A1, “MODIFIED RELEASE FORMULATION COMPRISING WITHANOLIDES” (INVENTIA HEALTHCARE LIMITED, priority 2021, published 2024).

The conditions of the data set: mice plasma, oral Withania somnifera extract 1000 mg/kg.

As a reminder, the half-life is the time in which the quantity being followed falls by half. Consider `CC1=C(C)C(=O)O[C@@H]([C@](C)(O)[C@H]2CC[C@H]3[C@@H]4[C@@H]5O[C@@H]5[C@@]5(O)CC=CC(=O)[C@]5(C)[C@H]4CC[C@]23C)C1` [withanolide-A], for which the half-life is 45.22 ± 9.95 min.
For `CC1=C(CO)C(=O)O[C@@H]([C@@H](C)[C@H]2CC[C@H]3[C@@H]4C[C@H]5O[C@]56[C@@H](O)C=CC(=O)[C@]6(C)[C@H]4CC[C@]23C)C1` [withaferin-A], the half-life was 59.92 ± 15.90 min.
